Consider 34 compounds from the RepoRT retention time repository.

Structures are written as SMILES.

A short description of the data set: HILIC, HILICON iHILIC-(P) Classic, HILIC, PEEK, 100 × 2.1 mm, 5 µm, 40 °C, 0.2 mL/min, estimated dead time 1.1 min; A: water + 20 mM ammonium carbonate + 5 µM medronic acid; B: 10% water + 90% acetonitrile + 2 mM ammonium carbonate + 0.5 µM medronic acid; gradient (min/%B) 0/95 18/55 19/20 22/20 22.5/95 24/95 26/95. The note with it: stereoisomer not certain.
Regarding `CC(O)C(=O)O` (centres undefined) [Lactic Acid], the LC retention time is 3.92 min. Then `NC(CCC(=O)NC(CS)C(=O)NCC(=O)O)C(=O)O` (centres undefined) [GSH], with 10.2 min; and `CC(C)(COP(=O)(O)OP(=O)(O)OCC1OC(n2cnc3c(N)ncnc32)C(O)C1OP(=O)(O)O)C(O)C(=O)NCCC(=O)NCCS` (centres undefined) [CoenzymeA], with 11.5 min; and `Nc1ncnc2c1ncn2C1OC(COP(=O)(O)O)C(O)C1O` (centres undefined) [AMP], with 10.1 min. The result for `O=C(O)CC(O)(CC(=O)O)C(=O)O` [Citric acid] reads 15.3 min. `O=C(O)C=CC(=O)O` [Fumaric Acid]: the LC retention time is 12.4 min.

For `O=P(O)(O)OCC1OC(O)C(O)C1O` (centres undefined) [Pentose-phosphate], the LC retention time is 11.6 min. With `O=P(O)(O)OCC(O)CO` (centres undefined) [Glycerol-3-phosphate], the LC retention time is 10.8 min.

In the case of `O=C(CO)C(O)C(O)C(O)COP(=O)(O)O` (centres undefined) [Fructose 6-phosphate], the LC retention time is 11.9 min. Then `CC(=O)NC1C(OP(=O)(O)OP(=O)(O)OCC2OC(n3ccc(=O)[nH]c3=O)C(O)C2O)OC(CO)C(O)C1O` (centres undefined) [UDP-GlcNAc], with 12 min; and `O=C(O)CCC(=O)C(=O)O` [2-Oxoglutaric acid], with 12.7 min; and `C=C(OP(=O)(O)O)C(=O)O` [PEP], with 14.6 min. Then `O=P(O)(O)OC1OC(CO)C(O)C(O)C1O` (centres undefined) [Glucose-1-phosphate], with 11.9 min. Then `NC(=O)c1ccc[n+](C2OC(COP(=O)(O)OP(=O)(O)OCC3OC(n4cnc5c(N)ncnc54)C(O)C3O)C(O)C2O)c1` (centres undefined) [NAD], with 11.1 min. Take `Nc1ncnc2c1ncn2C1OC(COP(=O)(O)OP(=O)(O)OP(=O)(O)O)C(O)C1O` (centres undefined) [ATP]: the LC retention time was 13.3 min. The result for `O=C(O)CCC(=O)O` [Succinic Acid] reads 11.2 min; that for `NCCCCC(N)C(=O)O` (centres undefined) [Lysine], 18.3 min. As to `NC(=O)C1=CN(C2OC(COP(=O)(O)OP(=O)(O)OCC3OC(n4cnc5c(N)ncnc54)C(O)C3O)C(O)C2O)C=CC1` (centres undefined) [NADH], the LC retention time was 9.08 min. The result for `Nc1ncnc2c1ncn2C1OC(CO)C(O)C1O` (centres undefined) [Adenosine] reads 4.79 min; that for `NC(=O)C1=CN(C2OC(COP(=O)(O)OP(=O)(O)OCC3OC(n4cnc5c(N)ncnc54)C(OP(=O)(O)O)C3O)C(O)C2O)C=CC1` (centres undefined) [NADPH], 15.2 min; that for `NC(CCC(=O)O)C(=O)O` (centres undefined) [Glutamic acid], 9.7 min.

Take `NC(=O)CC(N)C(=O)O` (centres undefined) [Asparagine]: the LC retention time is 9.65 min. Then `O=C(CO)COP(=O)(O)O` [Triose phosphate], with 11.8 min; and `CC(=O)SCCNC(=O)CCNC(=O)C(O)C(C)(C)COP(=O)(O)OP(=O)(O)OCC1OC(n2cnc3c(N)ncnc32)C(O)C1OP(=O)(O)O` (centres undefined) [Acetyl-CoA], with 9.93 min. The result for `NC(CCC(=O)NC(CSSCC(NC(=O)CCC(N)C(=O)O)C(=O)NCC(=O)O)C(=O)NCC(=O)O)C(=O)O` (centres undefined) [GSSG] reads 14.7 min. The result for `NC(=O)c1ccc[n+](C2OC(COP(=O)(O)OP(=O)(O)OCC3OC(n4cnc5c(N)ncnc54)C(OP(=O)(O)O)C3O)C(O)C2O)c1` (centres undefined) [NADP] reads 14.4 min; that for `NC(CC(=O)O)C(=O)O` (centres undefined) [Aspartic Acid], 10.2 min. Take `Nc1ncnc2c1ncn2C1OC(COP(=O)(O)OP(=O)(O)O)C(O)C1O` (centres undefined) [ADP]: the LC retention time was 11.9 min. Consider `O=P(O)(O)OCC1OC(O)C(O)C(O)C1O` (centres undefined) [Glucose-6-phosphate], for which the LC retention time was 13.9 min.

As for `NC(=O)CCC(N)C(=O)O` (centres undefined) [Glutamine], the LC retention time is 9.81 min. The result for `O=C(O)CC(C(=O)O)C(O)C(=O)O` (centres undefined) [Isocitric acid] reads 15.5 min. For the compound `NC(N)=NCCCC(N)C(=O)O` (centres undefined) [Arginine], the LC retention time was 18.5 min.

For the compound `O=C(O)CC(O)C(=O)O` (centres undefined) [Malic Acid], the LC retention time was 11.9 min. As for `O=P(O)(O)OCC1OC(O)(COP(=O)(O)O)C(O)C1O` (centres undefined) [Fructose-1,6-bisphosphate], the LC retention time is 16.4 min.
